Laboratory results taken from ChEMBL document CHEMBL1201862, “PubChem BioAssay data set” (2004).
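Step 1: Grow cells in 96-well plates. Step 2: Expose to compound for 48 hours at 5 concentrations. Step 3: Interpolate endpoints linearly; if unreached, use highest concentration. GI50 = concentration required for 50% inhibition of growth.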 Active and inactive are the calls of the source. Cut-off read from the data, not from the text of the source: active = GI50 up to about 1.1 µM and inactive = higher.

Key:
Experiment in all cases: NCI-60 cell line screen, 48 h
TK-10 = tested on: TK-10
UO-31 = tested on: UO-31
SK-MEL-5 = tested on: SK-MEL-5
OVCAR-5 = tested on: OVCAR-5
EKVX = tested on: EKVX
SK-OV-3 = tested on: SK-OV-3
UACC-62 = tested on: UACC-62
RXF 393 = tested on: RXF 393
A498 = tested on: A498
SF-295 = tested on: SF-295
NCI-H23 = tested on: NCI-H23
K562 = tested on: K562
SF-268 = tested on: SF-268
SNB-19 = tested on: SNB-19
HCC 2998 = tested on: HCC 2998
A549 = tested on: A549

Measured: GI50

CCOC(OCC)(OCC)C(Br)CC (centres undefined)
inactive: TK-10 > 100 µM | UO-31 > 100 µM | SK-MEL-5 > 100 µM | OVCAR-5 > 100 µM | EKVX > 100 µM | SK-OV-3 > 100 µM | UACC-62 > 100 µM | RXF 393 > 100 µM | A498 > 100 µM | SF-295 > 100 µM | NCI-H23 > 100 µM | K562 > 100 µM | SF-268 36.7 µM | SNB-19 > 100 µM | HCC 2998 > 100 µM | A549 > 100 µM

CCN(CC)CCOC(c1ccccc1)c1ccccc1.CCOC(=O)Nc1ccc(S(=O)(=O)OC)cc1.CCOC(=O)Nc1ccc(S(=O)(=O)OC)cc1.Nc1ccc(C(=O)O)c(O)c1
inactive: TK-10 > 100 µM | UO-31 > 100 µM | SK-MEL-5 > 100 µM | OVCAR-5 > 100 µM | EKVX > 100 µM | SK-OV-3 > 100 µM | UACC-62 > 100 µM | RXF 393 > 100 µM | A498 > 100 µM | SF-295 > 100 µM | NCI-H23 > 100 µM | K562 > 100 µM | SF-268 > 100 µM | SNB-19 > 100 µM | HCC 2998 > 100 µM | A549 > 100 µM

CC1CCC2[C@@H](C)COC3O[C@]4(C)CCC1C32OO4 (some centres undefined)
inactive: TK-10 > 100 µM | UO-31 54.1 µM | SK-MEL-5 > 100 µM | OVCAR-5 > 100 µM | EKVX > 100 µM | SK-OV-3 > 100 µM | UACC-62 > 100 µM | RXF 393 > 100 µM | A498 > 100 µM | SF-295 > 100 µM | NCI-H23 > 100 µM | K562 38.9 µM | SF-268 > 100 µM | SNB-19 > 100 µM | HCC 2998 > 100 µM | A549 > 100 µM

CN(C)CCN1CCc2c([nH]c3ccccc23)C1c1cccnc1 (centres undefined)
inactive: TK-10 > 100 µM | UO-31 40.9 µM | SK-MEL-5 > 100 µM | OVCAR-5 > 100 µM | EKVX > 100 µM | SK-OV-3 > 100 µM | UACC-62 > 100 µM | RXF 393 20.2 µM | A498 > 100 µM | SF-295 > 100 µM | NCI-H23 > 100 µM | K562 > 100 µM | SF-268 > 100 µM | SNB-19 > 100 µM | HCC 2998 > 100 µM | A549 > 100 µM

CCN(CC)CCCC(C)Nc1c2cc(OC)cc(C)c2nc2c(C)c(Cl)ccc12 (centres undefined)
inactive: TK-10 1.73 µM | UO-31 1.71 µM | SK-MEL-5 1.87 µM | OVCAR-5 2.1 µM | EKVX 1.85 µM | SK-OV-3 1.67 µM | UACC-62 1.79 µM | RXF 393 2.09 µM | A498 2.43 µM | SF-295 2.22 µM | NCI-H23 1.48 µM | K562 1.83 µM | SF-268 1.97 µM | SNB-19 1.68 µM | HCC 2998 1.63 µM | A549 1.89 µM

COc1ccc(C(=O)c2c(C(C(=O)c3ccc(OC)cc3)C(=O)c3ccc(OC)cc3)n(C(=O)c3ccc(OC)cc3)c3ccccc23)cc1
inactive: TK-10 > 100 µM | UO-31 > 100 µM | SK-MEL-5 > 100 µM | OVCAR-5 > 100 µM | EKVX > 100 µM | SK-OV-3 > 100 µM | UACC-62 > 100 µM | RXF 393 > 100 µM | A498 > 100 µM | SF-295 > 100 µM | NCI-H23 > 100 µM | K562 > 100 µM | SF-268 > 100 µM | SNB-19 > 100 µM | HCC 2998 > 100 µM | A549 > 100 µM

CCN(CC)/C(=C\Cl)Nc1ccccn1.[O-][Cl+3]([O-])([O-])O
inactive: TK-10 > 100 µM | UO-31 > 100 µM | SK-MEL-5 > 100 µM | OVCAR-5 > 100 µM | EKVX > 100 µM | SK-OV-3 > 100 µM | UACC-62 > 100 µM | RXF 393 > 100 µM | A498 > 100 µM | SF-295 > 100 µM | NCI-H23 > 100 µM | K562 > 100 µM | SF-268 > 100 µM | SNB-19 > 100 µM | HCC 2998 > 100 µM | A549 > 100 µM

O=c1[nH]c(=O)n(C2OC(CO)C(O)C2O)cc1/N=N/NCc1ccccc1 (centres undefined)
inactive: TK-10 > 100 µM | UO-31 > 100 µM | SK-MEL-5 > 100 µM | OVCAR-5 > 100 µM | EKVX > 100 µM | SK-OV-3 > 100 µM | UACC-62 > 100 µM | RXF 393 > 79.4 µM | A498 > 100 µM | SF-295 > 100 µM | NCI-H23 > 100 µM | K562 > 71.9 µM | SF-268 > 100 µM | SNB-19 > 100 µM | HCC 2998 > 100 µM | A549 > 100 µM

[O-][S+](Cc1cc2c(cc1Br)OCO2)c1ccccc1 (centres undefined)
inactive: TK-10 > 100 µM | UO-31 47.5 µM | SK-MEL-5 61.5 µM | OVCAR-5 > 100 µM | EKVX > 100 µM | SK-OV-3 > 100 µM | UACC-62 33.4 µM | RXF 393 40.6 µM | A498 > 100 µM | SF-295 > 100 µM | NCI-H23 68.2 µM | K562 27.5 µM | SF-268 59.2 µM | SNB-19 > 100 µM | HCC 2998 > 100 µM | A549 > 100 µM
